# Results taken from paper PMC7312527 (International Journal of Molecular Sciences, 2020).
# Tests used:
# EeAChE = EeAChE (Electrophorus electricus, UniProt O42275); assay: Kinetic characterization of EeAChE inhibition (Lineweaver–Burk plot); type: biochemical; conditions: inhibitor 25, 75, 100 nM
# Method: Compound 3e was selected and kinetic studies were performed similar to the enzyme inhibition assay. […]. 0.05–0.5 mM). All processes were assayed in triplicate.
# [1] = target: T1, Amyloid β peptide (1–42) (Aβ42) (Homo sapiens, UniProt P05067); assay: Inhibition of self-induced Aβ42 aggregation (thioflavin-T assay); type: biochemical
# T1 construct: Amyloid β peptide (1–42) (Aβ42) was purchased from Sigma Aldrich; purchased Sigma Aldrich
# in vitro = type: cell-based; conditions: human, human hepatic stellate cells (HSCs), HSCs, 24 h, read-out: hepatotoxicity (MTT; cell viability as percentage of control)
# Method: Human hepatic stellate cells (HSCs, Sciencell) were cultured in the Stellate Cell Medium (Sciencell) with 1% Stellate Cell Growth Supplement, 2% fetal bovine serum (FBS), and 1% penicillin/streptomycin solution (Sciencell). Cells were kept in the incubator (37 °C, 5% CO2). At the beginning of the experiment, cells were seeded in the 96-well plates at a density of 5 × 10^3 cells per well and incubated in the incubator for 24 h. After the incubation period, medium was removed and HSCs were exposed to 100 µL of the compound solutions over a range of concentrations (10–0.1 µM) or nothing but culture medium (blank control). Cells were further incubated for 24 h. At the end, medium was removed, cells were washed with PBS, and 50 µL of the MTT solution (0.75 mg/mL) was added to the cells. Plates were kept in the dark for 2 h at 37 °C. Finally, the MTT solution was removed and 100 µL of DMSO was added to each well. Plates with DMSO were kept at room temperature for 10 min. After this time, 5 µL of Sorensen Buffer was added to each well. Plates were swayed and the absorbance was measured at a wavelength of 570 nm by a microplate reader (Synergy H1, BioTek). The cell viability was expressed as a percentage of the control values (blank control).
# AChE from electric eel = AChE from electric eel (Electrophorus electricus, UniProt O42275); assay: biochemical
# SH-SY5Y cells [2] = assay: Neuroprotection against rotenone/oligomycin A, co-incubation (MTT); type: cell-based, human; conditions: R/O mixture
# female mice Balb/c = assay: In vivo acute oral toxicity (OECD 423)
# Method: (§1) Compound 3c was given orally (by gavage) in fixed doses, 5, 50, 300, or 2000 mg/kg body weight, at each stage of the study. Compound 3c was administered at an initial dose of 300 mg/kg, as its toxicity was unknown. According to the graph from the Organization for Economic Cooperation and Development (OCED) 423 guideline, six test stages might be performed. Three animals (female mice Balb/c) take part in each stage. The number of stages depends on the deaths of mice, which is the final test parameter. Results allowed for the classification of compound 3c into a Globally Harmonized Classification System for Chemical Substances and Mixtures (GHS) category. Moreover, the LD50 cut-off values were determined. The research was carried out on the basis of the agreement of the Local Ethical Committee for animal testing in Łódź No. 56/115 ŁB/2018. Compound 3c was administrated in a first dose of 300 mg/kg of body weight.
# (§2) The testing protocol is as follows: After the initial dose of 300 mg/kg body weight, if 2–3 mice die, the compound is given at a lower dose (50 mg/kg). The lowest dose (5 mg/kg) is administrated if 2–3 animals die after the 50 mg/kg dose. If there are no deaths or only one mouse dies after administration of the 300 mg/kg dose, the compound is given again at the same dose (300 mg/kg). If there are no deaths again, the highest dose (2000 mg/kg) is given. After each dose, the mice are observed for 14 days. […]
# [3] = In vivo acute oral toxicity (OECD 423); conditions: female, Balb/c, mouse, in vivo, mice, read-out: LD50 cut-off values
# Method: as §1, §2
# BuChE from equine serum = BuChE from equine serum (Equus caballus, UniProt P81908); assay: biochemical
# [4] = tested on: histone H3 phosphorylation (Ser10) in human astrocytes; assay: Global histone H3 phosphorylation (Ser10) colorimetric assay; type: cell-based; conditions: for amount of phosphorylated H3Ser10 / phosphorylation of H3Ser10 in comparison to 100% control: 24 h
# Method: Cell culture: Human astrocytes (HA, Sciencell, USA) were grown in the Astrocyte Cell Medium (Sciencell) supplemented with 2% fetal bovine serum (Sciencell), 1% Astrocyte Cell Growth Supplement (Sciencell), and 1% penicillin/streptomycin solution (Sciencell). Cells were cultured in the incubator at 37 °C and 5% CO2. To start the experiment, cells were seeded at the density of 1.5 × 10^6 cells/well in the flasks and were kept in the incubator (37 °C, 5% CO2) for 24 h. After the incubation period, the medium was removed. Then, the cells were exposed to compound 3c (1 µM and 0.025 µM) or nothing but control medium for 24 h. Then, cells were collected and histone extracts from them were prepared.
# The levels of histone H3 phosphorylation (Ser10) were determined using a Global Histone H3 phosphorylation (Ser10) colorimetric assay kit (Epigentek) according to the manufacturer’s instructions. In the assay, the phosphorylated histone H3 at ser10 is captured in the wells of a 96-well plate coated with an anti-phospho histone H3 antibody. The captured phosphorylated histone H3 (Ser10) is detected with a labeled detection antibody followed by a color development reagent. […]
# SH-SY5Y cells [5] = assay: Neuroprotection against rotenone/oligomycin A, pre-incubation (MTT); type: cell-based, human; conditions: R/O mixture, 0.0001 µM
# SH-SY5Y cells [6] = assay: Neuroprotection against oxidative stress induced by H2O2 (MTT); type: cell-based, human; conditions: H2O2 100 µM
# T1 sequence (P05067 672-713 limits assumed): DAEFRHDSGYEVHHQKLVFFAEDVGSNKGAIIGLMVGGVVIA
# AChE from electric eel, sequence (O42275 24-633): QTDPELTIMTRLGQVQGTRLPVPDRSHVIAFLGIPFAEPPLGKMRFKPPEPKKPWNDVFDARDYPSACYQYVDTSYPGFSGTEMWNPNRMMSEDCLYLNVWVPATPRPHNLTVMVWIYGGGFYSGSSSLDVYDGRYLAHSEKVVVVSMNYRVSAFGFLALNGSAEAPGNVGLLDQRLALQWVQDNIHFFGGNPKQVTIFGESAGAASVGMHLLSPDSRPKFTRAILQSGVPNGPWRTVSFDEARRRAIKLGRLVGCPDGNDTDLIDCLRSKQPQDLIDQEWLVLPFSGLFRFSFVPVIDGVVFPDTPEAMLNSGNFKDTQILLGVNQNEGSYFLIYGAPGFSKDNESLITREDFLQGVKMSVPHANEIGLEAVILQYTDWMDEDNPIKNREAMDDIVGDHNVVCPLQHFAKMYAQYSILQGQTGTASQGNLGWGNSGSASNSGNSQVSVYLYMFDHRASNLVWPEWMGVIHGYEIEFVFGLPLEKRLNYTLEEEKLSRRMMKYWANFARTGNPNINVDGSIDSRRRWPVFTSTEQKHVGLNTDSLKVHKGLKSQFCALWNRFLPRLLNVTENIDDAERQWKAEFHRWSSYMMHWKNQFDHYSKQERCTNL
# BuChE from equine serum, sequence (P81908 whole entry): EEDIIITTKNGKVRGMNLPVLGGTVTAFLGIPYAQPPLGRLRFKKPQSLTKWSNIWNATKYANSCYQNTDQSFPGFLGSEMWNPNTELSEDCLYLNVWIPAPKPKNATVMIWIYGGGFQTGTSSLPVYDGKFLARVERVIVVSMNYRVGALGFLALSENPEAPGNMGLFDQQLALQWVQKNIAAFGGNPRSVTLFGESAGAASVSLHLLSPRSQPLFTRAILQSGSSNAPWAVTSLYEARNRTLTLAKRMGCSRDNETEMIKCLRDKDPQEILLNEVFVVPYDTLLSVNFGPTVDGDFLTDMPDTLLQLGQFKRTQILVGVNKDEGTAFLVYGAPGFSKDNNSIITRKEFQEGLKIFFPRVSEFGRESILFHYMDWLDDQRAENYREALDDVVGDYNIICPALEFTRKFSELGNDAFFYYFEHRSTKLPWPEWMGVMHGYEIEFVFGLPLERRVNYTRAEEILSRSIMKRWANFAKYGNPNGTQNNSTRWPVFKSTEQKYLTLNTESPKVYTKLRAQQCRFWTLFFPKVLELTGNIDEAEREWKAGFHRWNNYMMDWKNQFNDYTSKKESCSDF
# EeAChE, sequence (O42275 24-633): as the sequence (O42275 24-633) above
smiles,measurement,setting,value
O=C(NCCCCNc1c2c(nc3ccccc13)CCCC2)c1cc(Cl)cc(Cl)c1 [Compound 3c],inhibition type of EeAChE,EeAChE,mixed-type inhibition
same,Inhibition of Aβ aggregation,[1]; 5 µM,23%
same,inhibition at 5 µM,"[1]; 5 µM, read-out: Inhibition of Aβ aggregation",23.5%
same,inhibition at 10 µM,"[1]; 10 µM, read-out: Inhibition of Aβ aggregation",24.3%
same,inhibition at 25 µM,"[1]; 25 µM, read-out: Inhibition of Aβ aggregation",25.8%
same,inhibition at 50 µM,"[1]; 50 µM, read-out: Inhibition of Aβ aggregation",26.7%
same,Inhibition of Aβ aggregation,[1]; 100 µM,32%
same,inhibition at 100 µM,"[1]; 100 µM, read-out: Inhibition of Aβ aggregation",31.8%
same,Inhibition of Aβ42 aggregation,[1]; at all concentrations (5–100 µM),more than 23%
same,"viability at 24 h, 0.1 µM",in vitro; 0.1 µM,99.9%
same,"viability at 24 h, 1 µM",in vitro; 1 µM,95.4%
same,"viability at 24 h, 10 µM",in vitro; 10 µM,87.4%
same,Selectivity for AChE,AChE from electric eel; IC50 (BuChE)/IC50(AChE),4.864
same,IC50,"AChE from electric eel; means ± SD of three independent experiments, read-out: EeAChE IC50 ± SD",25 ± 3 nM
same,neuroprotection,SH-SY5Y cells [2]; 0.0001 µM,29.10%
same,neuroprotection,SH-SY5Y cells [2]; 0.001 µM,22.11%
same,neuroprotection,SH-SY5Y cells [2]; 0.01 µM,12.90%
same,neuroprotection,SH-SY5Y cells [2]; 0.1 µM,10.99%
same,GHS (Globally Harmonized System) Category,female mice Balb/c,4
same,deaths,"female mice Balb/c; 300 mg/kg, first and second stages",did not cause any deaths
same,deaths,"female mice Balb/c; 2000 mg/kg, first stage",all three mice died
same,LD50 at 14 days,[3],500 mg/kg
same,Selectivity for BuChE,BuChE from equine serum; IC50(AChE)/IC50(BuChE),0.206
same,IC50,"BuChE from equine serum; means ± SD of three independent experiments, read-out: EqBuChE IC50 ± SD",123 ± 11 nM
same,amount of phosphorylated H3Ser10,[4]; 0.025 µM,28.26 µg/mg
same,phosphorylation of H3Ser10 in comparison to 100% control,[4]; 0.025 µM,105.64%
same,DNA damage,[4]; 1 µM and 0.025 µM,not observed
same,amount of phosphorylated H3Ser10,[4]; 1 µM,29.08 µg/mg
same,phosphorylation of H3Ser10 in comparison to 100% control,[4]; 1 µM,108.69%
same,neuroprotection,SH-SY5Y cells [5],2.84%
same,neuroprotection,SH-SY5Y cells [6]; compound 0.01 µM,46.17%
same,neuroprotection,SH-SY5Y cells [6]; compound 0.1 µM,36.48%
same,neuroprotection,SH-SY5Y cells [6]; compound 1 µM,0%
same,neuroprotection,SH-SY5Y cells [6]; compound 10 µM,0%
